This is an account of results in the supplement of paper PMC8967900.

The structures appear in SMILES notation.
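Note: ALL cell lines in 384-well plates, five doses spanning 10,000-fold, each plate scaled between vehicle and 100 µmol/L benzalkonium chloride controls, sDSS an adapted area-under-curve metric.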

One assay relates to JURKAT. The experiment in a line: selective drug sensitivity score (sDSS, relative to normal bone marrow) (sDSS (score)); higher = more potent and effective on the cell line relative to normal bone marrow cells. Conditions: 72 h.
For the molecule `C[C@@H]1CN(CC(=O)Nc2ccc3c(c2)Cc2cccc(-c4cc(=O)cc(N5CCOCC5)o4)c2S3)C[C@H](C)O1` (top concentration 25000 nM), the “selective drug sensitivity score” value came to 0.92.

On to `COc1ccc2[nH]cc(/C=C3\C(=O)Nc4ccc(NC(=O)CCN5CCCCC5)cc43)c2c1` (top concentration 50000 nM), for which the “selective drug sensitivity score” value was -3.22.

For `Cc1nn(C)c(COc2ccc(N3CCN(S(=O)(=O)N(C)C)CC3)cc2)c1-c1cccc2c(CCCOc3cccc4ccccc34)c(C(=O)O)n(CCN3CCOCC3)c12` (top concentration 50000 nM), the “selective drug sensitivity score” value was determined as 5.86.

For the molecule `C[C@H](Nc1ncnc2[nH]cnc12)c1cc2ccc(F)cc2nc1-c1ccccn1` [AMG319] (top concentration 1000 nM), the “selective drug sensitivity score” value was -1.42.

With `C=CCn1c(=O)c2cnc(Nc3ccc(N4CCN(C)CC4)cc3)nc2n1-c1cccc(C(C)(C)O)n1` [AZD1775] (top concentration 10000 nM), the “selective drug sensitivity score” value turned out to be 11.3.

On to `NC(=O)Nc1cc(-c2cccc(F)c2)sc1C(=O)N[C@H]1CCCNC1` [AZD7762] (top concentration 1000 nM), for which the “selective drug sensitivity score” value is -0.7.

As for `Cc1cc([C@@H](C)Nc2ccccc2C(=O)O)c2nc(N3CCOCC3)cc(=O)n2c1` [AZD-6482] (top concentration 2500 nM), the “selective drug sensitivity score” value was -0.28.

Regarding `CN(C)Cc1c(C(=O)NCCOc2ccc(C(=O)NO)cc2)oc2ccccc12` [Abexinostat] (top concentration 10000 nM), the “selective drug sensitivity score” value came to 1.66.

Regarding `S=C(NCc1ccc2c(c1)OCO2)N1CCN(c2ncnc3c2oc2ccccc23)CC1` [Amuvatinib] (top concentration 10000 nM), the “selective drug sensitivity score” value turned out to be 11.1.

On to `CC(=O)OC[C@H]1O[C@@H]([S-])[C@H](OC(C)=O)[C@@H](OC(C)=O)[C@@H]1OC(C)=O.CCP(CC)CC.[Au+]` [Auranofin] (top concentration 2500 nM), for which the “selective drug sensitivity score” value is -1.76.

The test system of the next assay is KARPAS-45. The description is as above. Conditions: 72 h.
Turning to `Cc1c(-c2ccc(N3CCc4cccc(C(=O)Nc5nc6ccccc6s5)c4C3)nc2C(=O)O)cnn1CC12CC3CC(CC(C3)C1)C2` (top concentration 1000 nM), the “selective drug sensitivity score” value worked out at 23.8.

Take `O=C(NOC[C@H](O)CO)c1ccc(F)c(F)c1Nc1ccc(I)cc1F` (top concentration 1000 nM): the “selective drug sensitivity score” value was -3.76.

Take `CO[C@@H](C)Cn1c(=O)n(C)c2cnc3ccc(-c4cncc(C(C)(C)O)c4)cc3c21` (top concentration 2500 nM): the “selective drug sensitivity score” value stood at 2.08.

Consider `Cc1cccc(CC(=O)N2CCc3c2ccc(-c2cn(C)c4ncnc(N)c24)c3F)n1` (top concentration 2500 nM), for which the “selective drug sensitivity score” value stood at 1.32.

Consider `CNC(=O)c1ccccc1Nc1nc(Nc2ccc3c(c2OC)CCC[C@H](N2CCN(CCO)CC2)C3)ncc1Cl` (top concentration 5000 nM), for which the “selective drug sensitivity score” value turned out to be 1.26.

Take `COc1cc2ncnc(Oc3cccc(NC(=O)Nc4cc(C(C)(C)C(F)(F)F)on4)c3)c2cc1OC` (top concentration 10000 nM): the “selective drug sensitivity score” value came out at 3.2.

With `C[C@@H](Oc1cc(-n2cnc3ccc(CN4CCN(C)CC4)cc32)sc1C(N)=O)c1ccccc1C(F)(F)F` (top concentration 10000 nM), the “selective drug sensitivity score” value was determined as 28.8.

In the case of `Nc1nccc(-c2c(-c3ccc(F)cc3)ncn2C2CCCCC2)n1` (top concentration 10000 nM), the “selective drug sensitivity score” value came out at 0.6.

As to `O=C(O)c1ccc(-c2c[nH]c3ncc(-c4ccccc4)cc23)cc1C1CCCC1` (top concentration 10000 nM), the “selective drug sensitivity score” value came out at 4.36.

Turning to `C[C@@H]1CN(CC(=O)Nc2ccc3c(c2)Cc2cccc(-c4cc(=O)cc(N5CCOCC5)o4)c2S3)C[C@H](C)O1` (top concentration 25000 nM), the “selective drug sensitivity score” value turned out to be 1.72.

Regarding `COc1ccc2[nH]cc(/C=C3\C(=O)Nc4ccc(NC(=O)CCN5CCCCC5)cc43)c2c1` (top concentration 50000 nM), the “selective drug sensitivity score” value was 7.98.

`Cc1nn(C)c(COc2ccc(N3CCN(S(=O)(=O)N(C)C)CC3)cc2)c1-c1cccc2c(CCCOc3cccc4ccccc34)c(C(=O)O)n(CCN3CCOCC3)c12` (top concentration 50000 nM): the “selective drug sensitivity score” value worked out at 8.16.

Consider `C[C@H](Nc1ncnc2[nH]cnc12)c1cc2ccc(F)cc2nc1-c1ccccn1` [AMG319] (top concentration 1000 nM), for which the “selective drug sensitivity score” value was -0.22.

As for `C=CCn1c(=O)c2cnc(Nc3ccc(N4CCN(C)CC4)cc3)nc2n1-c1cccc(C(C)(C)O)n1` [AZD1775] (top concentration 10000 nM), the “selective drug sensitivity score” value was 14.9.

In the case of `NC(=O)Nc1cc(-c2cccc(F)c2)sc1C(=O)N[C@H]1CCCNC1` [AZD7762] (top concentration 1000 nM), the “selective drug sensitivity score” value came out at 1.8.

With `Cc1cc([C@@H](C)Nc2ccccc2C(=O)O)c2nc(N3CCOCC3)cc(=O)n2c1` [AZD-6482] (top concentration 2500 nM), the “selective drug sensitivity score” value was determined as 1.82.

Turning to `CN(C)Cc1c(C(=O)NCCOc2ccc(C(=O)NO)cc2)oc2ccccc12` [Abexinostat] (top concentration 10000 nM), the “selective drug sensitivity score” value was 10.6.

For the molecule `S=C(NCc1ccc2c(c1)OCO2)N1CCN(c2ncnc3c2oc2ccccc23)CC1` [Amuvatinib] (top concentration 10000 nM), the “selective drug sensitivity score” value was 5.06.

On to `CC(=O)OC[C@H]1O[C@@H]([S-])[C@H](OC(C)=O)[C@@H](OC(C)=O)[C@@H]1OC(C)=O.CCP(CC)CC.[Au+]` [Auranofin] (top concentration 2500 nM), for which the “selective drug sensitivity score” value was determined as 0.94.

The subject of another assay is KOPN-8. The assay is described as above. Conditions: 72 h.
`Cc1c(-c2ccc(N3CCc4cccc(C(=O)Nc5nc6ccccc6s5)c4C3)nc2C(=O)O)cnn1CC12CC3CC(CC(C3)C1)C2` (top concentration 1000 nM): the “selective drug sensitivity score” value is 0.74.

Take `O=C(NOC[C@H](O)CO)c1ccc(F)c(F)c1Nc1ccc(I)cc1F` (top concentration 1000 nM): the “selective drug sensitivity score” value was 10.1.

Regarding `CO[C@@H](C)Cn1c(=O)n(C)c2cnc3ccc(-c4cncc(C(C)(C)O)c4)cc3c21` (top concentration 2500 nM), the “selective drug sensitivity score” value was 13.9.

For `Cc1cccc(CC(=O)N2CCc3c2ccc(-c2cn(C)c4ncnc(N)c24)c3F)n1` (top concentration 2500 nM), the “selective drug sensitivity score” value was -0.68.

On to `CNC(=O)c1ccccc1Nc1nc(Nc2ccc3c(c2OC)CCC[C@H](N2CCN(CCO)CC2)C3)ncc1Cl` (top concentration 5000 nM), for which the “selective drug sensitivity score” value stood at 0.76.

In the case of `COc1cc2ncnc(Oc3cccc(NC(=O)Nc4cc(C(C)(C)C(F)(F)F)on4)c3)c2cc1OC` (top concentration 10000 nM), the “selective drug sensitivity score” value turned out to be 16.7.

As for `C[C@@H](Oc1cc(-n2cnc3ccc(CN4CCN(C)CC4)cc32)sc1C(N)=O)c1ccccc1C(F)(F)F` (top concentration 10000 nM), the “selective drug sensitivity score” value is 19.9.

With `Nc1nccc(-c2c(-c3ccc(F)cc3)ncn2C2CCCCC2)n1` (top concentration 10000 nM), the “selective drug sensitivity score” value amounted to 9.2.

As to `O=C(O)c1ccc(-c2c[nH]c3ncc(-c4ccccc4)cc23)cc1C1CCCC1` (top concentration 10000 nM), the “selective drug sensitivity score” value turned out to be 4.16.

On to `C[C@@H]1CN(CC(=O)Nc2ccc3c(c2)Cc2cccc(-c4cc(=O)cc(N5CCOCC5)o4)c2S3)C[C@H](C)O1` (top concentration 25000 nM), for which the “selective drug sensitivity score” value was 5.72.

With `COc1ccc2[nH]cc(/C=C3\C(=O)Nc4ccc(NC(=O)CCN5CCCCC5)cc43)c2c1` (top concentration 50000 nM), the “selective drug sensitivity score” value is 1.38.

In the case of `Cc1nn(C)c(COc2ccc(N3CCN(S(=O)(=O)N(C)C)CC3)cc2)c1-c1cccc2c(CCCOc3cccc4ccccc34)c(C(=O)O)n(CCN3CCOCC3)c12` (top concentration 50000 nM), the “selective drug sensitivity score” value was found to be 10.1.

For `C[C@H](Nc1ncnc2[nH]cnc12)c1cc2ccc(F)cc2nc1-c1ccccn1` [AMG319] (top concentration 1000 nM), the “selective drug sensitivity score” value is 6.38.

In the case of `C=CCn1c(=O)c2cnc(Nc3ccc(N4CCN(C)CC4)cc3)nc2n1-c1cccc(C(C)(C)O)n1` [AZD1775] (top concentration 10000 nM), the “selective drug sensitivity score” value amounted to 14.1.

As for `NC(=O)Nc1cc(-c2cccc(F)c2)sc1C(=O)N[C@H]1CCCNC1` [AZD7762] (top concentration 1000 nM), the “selective drug sensitivity score” value was 3.4.

On to `Cc1cc([C@@H](C)Nc2ccccc2C(=O)O)c2nc(N3CCOCC3)cc(=O)n2c1` [AZD-6482] (top concentration 2500 nM), for which the “selective drug sensitivity score” value amounted to 8.22.

With `CN(C)Cc1c(C(=O)NCCOc2ccc(C(=O)NO)cc2)oc2ccccc12` [Abexinostat] (top concentration 10000 nM), the “selective drug sensitivity score” value turned out to be 9.26.

As to `S=C(NCc1ccc2c(c1)OCO2)N1CCN(c2ncnc3c2oc2ccccc23)CC1` [Amuvatinib] (top concentration 10000 nM), the “selective drug sensitivity score” value was found to be 8.76.

As to `CC(=O)OC[C@H]1O[C@@H]([S-])[C@H](OC(C)=O)[C@@H](OC(C)=O)[C@@H]1OC(C)=O.CCP(CC)CC.[Au+]` [Auranofin] (top concentration 2500 nM), the “selective drug sensitivity score” value was found to be 11.6.
